Measured values published in the supplement of paper PMC10307832.

Tests used:
Experiment in all cases: relative viability (nuclei count vs DMSO), 5 days (fraction); higher = more cells survive
[1] = compound: C1=CC2=C(C=CC(=C2)C=C3C(=O)NC(=NCC4=CC=CS4)S3)N=C1 [RO-3306] + COc1cc2c(Oc3ccc(NC(=O)C4(C(=O)Nc5ccc(F)cc5)CC4)cc3F)ccnc2cc1OCCCN1CCOCC1 [Foretinib] (partner 0.25 µM)
Summary of the method: (§1)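 Cells from lung cancer lines were seeded into 1536-well plates and, one day later, dosed by pin tool. Treatments were either a single drug or a fixed dose of an anchor drug with five library-drug doses (not always all listed) in √10 steps. After 5 days, nuclei were stained in a one-step fixation (final 0.05% Triton X-100, 1% formaldehyde, 1 ug/ml Hoechst) and counted on 4× images, and relative viability is the treated-to-vehicle nuclei ratio, as the median of duplicate plates.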

[2] = compound: C1=CC2=C(C=CC(=C2)C=C3C(=O)NC(=NCC4=CC=CS4)S3)N=C1 [RO-3306] + Cc1nc(Nc2ncc(C(=O)Nc3c(C)cccc3Cl)s2)cc(N2CCN(CCO)CC2)n1 [Dasatinib] (partner 0.075 µM)
Summary of the method: as §1

[3] = compound: C1=CC2=C(C=CC(=C2)C=C3C(=O)NC(=NCC4=CC=CS4)S3)N=C1 [RO-3306] + N=C(N)NC(=N)NCCc1ccccc1 [Phenformin] (partner 250 µM)
Summary of the method: as §1

[4] = compound: O=S(=O)(c1ccccc1)N(CC(F)(F)F)c1ccc(C(O)(C(F)(F)F)C(F)(F)F)cc1 + COc1cc2c(Oc3ccc(NC(=O)C4(C(=O)Nc5ccc(F)cc5)CC4)cc3F)ccnc2cc1OCCCN1CCOCC1 [Foretinib] (partner 0.25 µM)
Summary of the method: as §1

[5] = compound: C1=CC2=C(C=CC(=C2)C=C3C(=O)NC(=NCC4=CC=CS4)S3)N=C1 [RO-3306] + COc1cccc2cc(-c3nc([C@H]4CC[C@H](C(=O)O)CC4)n4ncnc(N)c34)[nH]c12 [OSI-027] (partner 0.5 µM)
Summary of the method: as §1

[6] = compound: O=S(=O)(c1ccccc1)N(CC(F)(F)F)c1ccc(C(O)(C(F)(F)F)C(F)(F)F)cc1 + COc1cccc2cc(-c3nc([C@H]4CC[C@H](C(=O)O)CC4)n4ncnc(N)c34)[nH]c12 [OSI-027] (partner 0.5 µM)
Summary of the method: as §1

[7] = compound: O=S(=O)(c1ccccc1)N(CC(F)(F)F)c1ccc(C(O)(C(F)(F)F)C(F)(F)F)cc1 + Cc1cc(Nc2cc(N3CCN(C)CC3)nc(Sc3ccc(NC(=O)C4CC4)cc3)n2)n[nH]1 [Tozasertib] (partner 0.1 µM)
Summary of the method: as §1

[8] = compound: O=S(=O)(c1ccccc1)N(CC(F)(F)F)c1ccc(C(O)(C(F)(F)F)C(F)(F)F)cc1 + CCNC(=O)c1noc(-c2cc(C(C)C)c(O)cc2O)c1-c1ccc(CN2CCOCC2)cc1 [Luminespib] (partner 0.01 µM)
Summary of the method: as §1

[9] = compound: C1=CC2=C(C=CC(=C2)C=C3C(=O)NC(=NCC4=CC=CS4)S3)N=C1 [RO-3306] + CCNC(=O)c1noc(-c2cc(C(C)C)c(O)cc2O)c1-c1ccc(CN2CCOCC2)cc1 [Luminespib] (partner 0.01 µM)
Summary of the method: as §1

[10] = compound: O=S(=O)(c1ccccc1)N(CC(F)(F)F)c1ccc(C(O)(C(F)(F)F)C(F)(F)F)cc1 + N=C(N)NC(=N)NCCc1ccccc1 [Phenformin] (partner 250 µM)
Summary of the method: as §1

[11] = compound: O=S(=O)(c1ccccc1)N(CC(F)(F)F)c1ccc(C(O)(C(F)(F)F)C(F)(F)F)cc1 + Cc1nc(Nc2ncc(C(=O)Nc3c(C)cccc3Cl)s2)cc(N2CCN(CCO)CC2)n1 [Dasatinib] (partner 0.075 µM)
Summary of the method: as §1

[12] = compound: C1=CC2=C(C=CC(=C2)C=C3C(=O)NC(=NCC4=CC=CS4)S3)N=C1 [RO-3306] + Cc1cc(Nc2cc(N3CCN(C)CC3)nc(Sc3ccc(NC(=O)C4CC4)cc3)n2)n[nH]1 [Tozasertib] (partner 0.1 µM)
Summary of the method: as §1

[13] = compound: COc1cc2c(Oc3ccc(NC(=O)C4(C(=O)Nc5ccc(F)cc5)CC4)cc3F)ccnc2cc1OCCCN1CCOCC1 [Foretinib] (anchor plate); settings: 0.25 µM
Summary of the method: (§2)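 Vehicle-anchored 1536-well plates of lung cancer cell lines, held overnight at 37 °C, were pinned with five library-drug doses (not always all listed) spaced by √10. No medium change followed over the next 5 days, after which the cells were fixed, permeabilised and Hoechst-stained together and imaged at 4×. Nuclei were counted with MetaXpress, and viability is treated-well nuclei over vehicle-well nuclei, taken as a median across plates. Plates passed with control CV below 25% and at least one doubling.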

[14] = compound: C1=CC2=C(C=CC(=C2)C=C3C(=O)NC(=NCC4=CC=CS4)S3)N=C1 [RO-3306]
Summary of the method: as §2

[15] = compound: O=S(=O)(c1ccccc1)N(CC(F)(F)F)c1ccc(C(O)(C(F)(F)F)C(F)(F)F)cc1
Summary of the method: as §2

NCI-H1623
relative viability ([1]; first compound 0.01 µM): 0.908
relative viability ([1]; first compound 0.03162 µM): 0.749
relative viability ([1]; first compound 0.1 µM): 0.761
relative viability ([1]; first compound 0.3162 µM): 0.823
relative viability ([1]; first compound 1 µM): 0.739
relative viability ([2]; first compound 0.01 µM): 0.474
relative viability ([2]; first compound 0.03162 µM): 0.504
relative viability ([2]; first compound 0.1 µM): 0.525
relative viability ([2]; first compound 0.3162 µM): 0.555
relative viability ([2]; first compound 1 µM): 0.52
relative viability ([3]; first compound 0.01 µM): 0.61
relative viability ([3]; first compound 0.03162 µM): 0.597
relative viability ([3]; first compound 0.1 µM): 0.579
relative viability ([3]; first compound 0.3162 µM): 0.58
relative viability ([3]; first compound 1 µM): 0.568
relative viability ([4]; first compound 0.8 µM): 0.802
relative viability ([4]; first compound 2.53 µM): 0.805
relative viability ([4]; first compound 8 µM): 0.851
relative viability ([5]; first compound 0.01 µM): 0.408
relative viability ([5]; first compound 0.03162 µM): 0.384
relative viability ([5]; first compound 0.1 µM): 0.45
relative viability ([5]; first compound 0.3162 µM): 0.368
relative viability ([5]; first compound 1 µM): 0.405
relative viability ([6]; first compound 0.8 µM): 0.469
relative viability ([6]; first compound 2.53 µM): 0.389
relative viability ([6]; first compound 8 µM): 0.484
relative viability ([7]; first compound 0.8 µM): 0.399
relative viability ([7]; first compound 2.53 µM): 0.396
relative viability ([7]; first compound 8 µM): 0.366
relative viability ([8]; first compound 0.8 µM): 0.625
relative viability ([8]; first compound 2.53 µM): 0.411
relative viability ([8]; first compound 8 µM): 0.491
relative viability ([9]; first compound 0.01 µM): 0.574
relative viability ([9]; first compound 0.03162 µM): 0.451
relative viability ([9]; first compound 0.1 µM): 0.617
relative viability ([9]; first compound 0.3162 µM): 0.471
relative viability ([9]; first compound 1 µM): 0.5
relative viability ([10]; first compound 0.8 µM): 0.6
relative viability ([10]; first compound 2.53 µM): 0.559
relative viability ([10]; first compound 8 µM): 0.57
relative viability ([11]; first compound 0.8 µM): 0.528
relative viability ([11]; first compound 2.53 µM): 0.51
relative viability ([11]; first compound 8 µM): 0.493
relative viability ([12]; first compound 0.01 µM): 0.45
relative viability ([12]; first compound 0.03162 µM): 0.409
relative viability ([12]; first compound 0.1 µM): 0.442
relative viability ([12]; first compound 0.3162 µM): 0.446
relative viability ([12]; first compound 1 µM): 0.391
relative viability [13]: 0.899
relative viability ([14]; 0.01 µM): 0.99
relative viability ([14]; 0.03162 µM): 0.909
relative viability ([14]; 0.1 µM): 0.958
relative viability ([14]; 0.3162 µM): 1.08
relative viability ([14]; 1 µM): 0.844
relative viability ([15]; 0.8 µM): 0.928
relative viability ([15]; 2.53 µM): 0.836
relative viability ([15]; 8 µM): 0.856
